Key:
[1] = system: S. pneumoniae serotype 3 strain WU2; test: Intranasal inoculation mouse model: nasopharyngeal and lung colonization; assay type: in vivo, BALB/c mice; details: for number of bacteria in the lungs: p<0.05
Method: Inhibition of S. pneumoniae nasal and lung colonization with flamingo cadherin-related peptide: Seven weeks old BALB/c female mice (Harlan Laboratories, Israel) were housed in sterile conditions under 12 hour light/dark cycles and fed Purina Chow and tap water ad libitum. Animal experimental protocols were reviewed and approved by the Institutional Animal Care and Use Committee of the Ben-Gurion University of the Negev, Beer Sheva, Israel. For respiratory challenge with virulent S. pneumoniae mice were anaesthetized with Isoflurane (RxElite, Meridian, Id., USA) and inoculated intranasally (i.n.) with the denoted colony forming units (CFU) bacteria (in 25 μl PBS) prior and after treatment with the flamingo cadherin derived peptide at the denoted concentrations. […] The experiments were performed with groups of 4 mice at each treatment and each time point and the experiments were repeated on three different occasions.
To find whether FC peptide is capable of inhibiting S. pneumoniae colonization, mice were inoculated intranasally prior and after treatment with the FC-derived peptide at the denoted concentration. S. pneumoniae serotype 3, strain WU2 bacteria were treated with FC peptide, excess peptide was removed and the bacteria were inoculated intranasally. […] Using this size of inoculum, a natural clearance of bacteria from the lungs occurred 24 hours and 48 hours following inoculation.
Seven week old BALB/c female mice were anaesthetized with Isoflurane (RxElite, Meridian, Id.) and inoculated intranasally with S. pneumoniae serotype 3 strain WU2 ([…], a highly virulent bacterial strain) after treatment with 40 μg synthetic Flamingo cadherin receptor derived peptide (FCRP) for 1 hr. […]

[2] = system: S. pneumoniae encapsulated serotype 2 strain D39; test: Inhibition of S. pneumoniae adhesion to A549 cells, strain D39; assay type: cell-based, Streptococcus pneumoniae; details: p<0.001
Method: (§1) Inhibition of S. pneumoniae adhesion to A549 cells by addition of phages: A549 cells (type II epithelial lung carcinoma cells; ATCC, Rockville, Md., USA) were grown in DMEM medium supplemented with 10% foetal calf serum with penicillin and streptomycin (100 μg/ml each) at 37° C. in a humidified incubator. A549 cells (2.5×10^4/well) were cultured on fibronectin coated plates, to increase A549 cell adhesion to the wells and prevent their detachment during washings, in the absence of antibiotic for 24 hours at which time the cells reached confluence (5×10^4 cells/well on average). The plates were blocked with 1% gelatine for 1 hour and 10^6 CFU bacteria were added per well. The adhesion of S. pneumoniae to uncoated plates was negligible (<80 CFU/ml). The number of bacteria that adhered to fibronectin coated plates (8000±100 SD CFU/ml on average) was subtracted afterwards to determine the net number of bacteria that adhered to the A549 cells only. rFBA at the denoted concentrations (ranging from 5-30 μg/ml) was added to the cultured cells and incubated for an hour. Following extensive washings S. pneumoniae (10^6 CFU) were added for 1 hour incubation. […]
(§2) The ability of FC derived synthetic peptide to interfere in S. pneumoniae adhesion to A459 cells was analyzed. […]

[3] = system: S. pneumoniae encapsulated serotype 3 strain WU2; test: Inhibition of S. pneumoniae adhesion to A549 cells, strain WU2; assay type: cell-based, Streptococcus pneumoniae
Method: as §1, with “incubation. To identify phages able to interfere in bacterial adhesion the bacteria were preincubated with the phages for 1 hour centrifuged and added to the cultured cells.” for “incubation.”

rFBA = biological target: T1, rFBA (Streptococcus pneumoniae serotype 4, UniProt P0A4S1); test: Western blot like assay of FCRP binding to rFBA; details: rFBA on nitrocellulose probed with FCRP; FIG. 7C
T1 construct: made in house; host or cells: E. coli BL21(DE3)pLysS
Method: Western blots: rFBA and FCRP were separated by 1D-SDS PAGE, transferred to nitrocellulose and probed with FCRP or rFBA, respectively. Rabbit anti-FCRP-KLH serum or rabbit anti rFBA was added respectively. In both cases, anti-rabbit IgG (Jackson ImmunoResearch, West Grove, Pa.) was used for final identification. In the control experiment preimmune serum was used as first antibody.
To determine more directly whether FCRP binds to rFBA, Western blot like assays were performed where rFBA is separated using 1D SDS-PAGE, transferred to a nitrocellulose membrane and probed with FCRP. Binding of FCRP was detected by incubating the membrane sequentially with rabbit anti-FCRP-KLH serum and anti-rabbit IgG. […] In the control (FIG. 7D) the first antibody was a pre-immune serum. In the converse experiment, when FCRP is separated on SDS-PAGE, a band of approximately 1.5 kDa corresponding to the molecular weight of FCRP is bound by rFBA (FIG. 7 E). In the control (FIG. 7F) the first antibody was a pre-immune serum.

[4] = system: S. pneumoniae serotype 3 strain WU2; test: Intranasal inoculation mouse model: nasopharyngeal and lung colonization; assay type: in vivo, BALB/c mice; details: 10^7 bacteria
[5] = system: Unencapsulated S. pneumoniae serotype 3 strain 3.8DW; test: Inhibition of S. pneumoniae adhesion to A549 cells, strain 3.8DW; assay type: cell-based, Streptococcus pneumoniae
Method: as §1, with “incubation. To identify phages able to interfere in bacterial adhesion the bacteria were preincubated with the phages for 1 hour centrifuged and added to the cultured cells.” for “incubation.”

[6] = system: S. pneumoniae serotype 3 strain WU2; test: Intraperitoneal lethal dose systemic infection (sepsis) mouse model; assay type: in vivo, BALB/c mice
Text: 1) A lethal dose of S. pneumoniae serotype 3 strain WU2 (100 CFU) was used in this experiment. Bacteria were either untreated or treated ex-vivo for 1 hr with FCRP and used to inoculate intraperitoneally 7 weeks old BALB/c mice.
2) A lethal dose of S. pneumoniae serotype 3 strain WU2 (100 CFU) was used in this experiment. Bacteria were co-administered intraperitonealy to 7 weeks old BALB/c mice in the presence and absence of FCRP. […] Furthermore, in mice infected in the absence of FCRP bacteria could be found in the spleens of 100% of the (FIG. 15B) mice.
3) In a similar experiment, the mice were inoculated with bacteria in the presence and absence of FCRP and the mice were monitored for their survival.

[7] = system: S. pneumoniae unencapsulated serotype 2 strain R6; test: Inhibition of S. pneumoniae adhesion to A549 cells, strain R6; assay type: cell-based, Streptococcus pneumoniae
Method: as §1, §2

Molecule: H-Ala-Asp-Ser-Asp-Ser-Asp-Ser-Asp-Leu-Ser-Leu-Glu-Glu-Glu-Arg-OH (H-ADSDSDSDLSLEEER-OH; listed as Homo sapiens) [FCRP, 15 amino acid peptide from Flamingo-cadherin]
- bacterial colonization ([1]; 5×10^6 bacteria, 40 μg ex vivo, FIG. 11A): significant inhibition of bacterial colonization
- aspiration to the lung ([1]; 5×10^6 bacteria, 40 μg ex vivo, FIG. 11B): reduced aspiration to the lung
- pneumonia development ([1]; 5×10^6 bacteria, 40 μg ex vivo, FIG. 11C): reduced pneumonia development
- nasopharyngeal colonization ([1]; 10^6 bacteria treated ex vivo 1 hr with 40 μg, 3, 24, 48 hours, FIG. 9A): inhibited nasopharyngeal colonization significantly
- aspiration to the lungs ([1]; 10^6 bacteria treated ex vivo 1 hr with 40 μg, FIG. 9B): significant inhibition of aspiration to the lungs
- bacterial load (FIG. 13A) ([1]; 10^7 bacteria, pre-treatment, 3 and 48 hrs): reduced bacterial load significantly
- bacterial load in lungs (FIG. 13B) ([1]; 10^7 bacteria, pre-treatment, 24 hour): clear reduction in bacterial load
- number of bacteria in the lungs ([1]; co-administered, 4 hours after inoculation): reduced significantly
- colonization in the nasopharynx ([1]; inoculum 5×10^5, 20 μg/ml, 3, 6, 24 and 48 hours, FIG. 4A): inhibited colonization in the nasopharynx significantly
- colonization of the nasopharynx ([1]; inoculum 5×10^5, 40 μg/ml, all time points, FIG. 4A): prevented S. pneumoniae colonization of the nasopharynx at all time points tested
- colonization of the lung ([1]; inoculum 5×10^5, 20 or 40 μg/ml, 3 and 6 hours, FIG. 4B): inhibited significantly colonization of the lung
- colonization in the nasopharynx ([1]; inoculum 10^6, 20 μg/ml, 3, 6, 24 and 48 hours, FIG. 4C): inhibited colonization in the nasopharynx significantly
- colonization of the lung ([1]; inoculum 10^6, 40 μg/ml, 3, 6 and 24 hours, FIG. 4D): significantly inhibited colonization of the lung
- colonization of the nasopharynx ([1]; inoculum 10^6, 40 μg/ml, FIG. 4C): significantly higher ability to inhibit S. pneumoniae colonization of the nasopharynx
- bacteria in the lungs ([1]; inoculum 10^6, 20 or 40 μg/ml, 48 hours, FIG. 4D): no bacteria could be detected in the lungs
- bacteria in the lungs ([1]; new peptide preparation, 48 hr following inoculation, FIG. 10C): no bacteria could be found in the lungs
- nasopharyngeal colonization ([1]; new peptide preparation, pneumonia-causing batch, 10^6 bacteria, FIG. 10A): prevented completely
- aspiration of the bacteria to the lungs ([1]; new peptide preparation, pneumonia-causing batch, 10^6 bacteria, FIG. 10B): prevented completely
- number of bacteria in the lungs ([1]; peptide 1 hr after inoculation, 3 hours after peptide): reduced significantly
- inhibition of adhesion to A549 ([2]; 5 μg/well): significantly
- inhibition of adhesion to A549 cells ([2]; 20 μg/well): 90%
- maximal inhibition of adhesion to A549 cells ([3]; 15 μg/well, FIG. 3A): 80%
- binding of FCRP to rFBA (rFBA): a band of 33.5 kDa was shown to bind FCRP
- bacterial load (FIG. 13A) ([4]; one post inoculation treatment, 3 and 48 hrs): reduced bacterial load significantly
- bacterial load in lungs (FIG. 13B) ([4]; post inoculation treatment, 24 hour): clear reduction in bacterial load
- maximal adhesion inhibition ([5]; 20 μg/well, FIG. 3B): 41%
- survival rate ([6]; 100 CFU i.p., bacteria treated ex-vivo 1 hr, FIG. 14, p<0.05): increased the survival rate of the mice significantly
- bacteria in the spleens ([6]; 100 CFU i.p., co-administered, FIG. 15): no bacteria could be recovered from the spleens
- survival ([6]; lethal dose i.p., co-administration, FIG. 16, p<0.001): significant increase in survival
- inhibition of adhesion to A549 ([7]; 5 μg/well, p<0.001): significantly
- inhibition of adhesion to A549 cells ([7]; 15 μg/well): 75%

B1: rFBA: Recombinant Fructose Bisphosphate Aldolase (FBA; SP0605 Streptococcus pneumoniae TIGR4), 33.5 kDa FBA-HAT fusion protein (protein)
chain: MAIVSAEKFVQAARDNGYAVGGFNTNNLEWTQAILRAAEAKKAPVLIQTSMGAAKYMGGYKVARNLIANLVESMGITVPVAIHLDHGHYEDALECIEVGYTSIMFDGSHLPVEENLKLAKEVVEKAHAKGISVEAEVGTIGGEEDGIIGKGELAPIEDAKAMVETGIDFLAAGIGNIHGPYPVNWEGLDLDHLQKLTEALPGFPIVLHGGSGIPDEQIQAAIKLGVAKVNVNTECQIAFANATRKFARDYEANEAEYDKKKLFDPRKFLADGVKAIQASVEERIDVFGSEGKA
modifications: left off: small tags and cut ends
notes: Recombinant Fructose Bisphosphate Aldolase (FBA; SP0605 Streptococcus pneumoniae TIGR4), 33.5 kDa FBA-HAT fusion protein
- inhibition of adhesion to A549 cells ([3]; 0.5 μg/well, protein added to cells, FIG. 5A): 63%
- inhibition of adhesion to A549 cells ([5]; 12 μg/well, protein added to cells, FIG. 5B): 92%
